Assay results from patent US9421197B2, “Methods of generating hyper INOS expressing cells and uses thereof” (CASE WESTERN RESERVE UNIVERSITY, priority 2010, dated 2016).

Assays:
excisional wounds = test: inflammatory wound model: wound healing curves; type: in vivo, mice; settings: for day by which wounds healed: IL6−/− mice, inflammatory wound treatment, agent given i.p.
peritoneal macrophages = test: thioglycollate-induced peritonitis, peritoneal macrophages analyzed ex vivo by RT-PCR; settings: IL6−/− mice treated in vivo
Procedure: For RT-PCR analysis, RNA was isolated using Trizol (Invitrogen) following the manufacturer's instructions, and was reverse-transcribed and quantified using Applied Biosystems TaqMan® RNA-to-CT™ 1-Step Kit, TaqMan® Gene Expression Assays for 18 s RNA, iNOS II, […], and IL-1β, and Step-One™ System. Cycle time, temperature, and number were based on Applied Biosystems recommendations.
Mice were injected i.p. with 2 ml of thioglycollate and sacrificed 24 hours later mice by cervical dislocation. Lavage was performed by infusing 5 ml of […] DPBS into the peritoneal cavity. The fluid sample is recovered by aspirating the liquid with a syringe. 80%±21% of instilled fluid volume is recovered. Macrophages were harvested following centrifugation of the […].

iNOS and TNF-α mRNA = test: inflammatory wound model: iNOS and TNF-α expression in skin; type: in vivo; settings: IL6−/− mice, combined wounding, UVB and topical rosiglitazone, 24 hours
Procedure: Cycle time, temperature, and number were based on Applied Biosystems recommendations. Skin was wounded with some modifications. Mice were treated with 3-6 mm excisional wounds, one midline and two on each side of the midline. […] Wounds were measured and treated with topical rosiglitazone solution daily until healed (loss of serum crust and reepithelialization). Lung Treatment and Preparation […] All other reagents were purchased from sigma.

[1] = therapeutic doses; FDA alert May 21, 2007; cited from earlier work
NF-κB p65 and STAT3 = test: Western blot of nuclear NF-κB p65 and STAT3 in thioglycollate-elicited macrophages; type: cell-based, mice; settings: reconstitution of IL6−/− macrophages
Procedure: Mice were injected i.p. with 2 ml of thioglycollate and sacrificed 24 hours later mice by cervical dislocation. Lavage was performed by infusing 5 ml of 40 C DPBS into the peritoneal cavity. The fluid sample is recovered by aspirating the liquid with a syringe. 80%±21% of instilled fluid volume is recovered. Macrophages were harvested following centrifugation of the BAL fluid.
NE-PER kit (Thermo Scientific) was used to extract nuclear and cytoplasmic protein from peritoneal macrophages. Protein samples were prepared under reduced conditions and western blot analysis was performed using a standard protocol (Invitrogen). Stat3 (79D7) Rabbit mAb, NF— xB p65, β-actin (13E5) Rabbit mAb (Cell Signaling Technology, Danvers, Mass.) were used for western blot evaluation. Densiometry analyzed by Biorad VersaDoc imaging system.

With CC(=N)NCc1cccc(CN)c1 [1400 W] the “day by which wounds healed” value (excisional wounds) was 14 days.
In the case of O=C(Nc1ccccc1)c1cc([N+](=O)[O-])ccc1Cl [GW9662], the iNOS expression (peritoneal macrophages) is reported as “No significant increase”.
For CN(CCOc1ccc(CC2SC(=O)NC2=O)cc1)c1ccccn1 (centres unmarked) [rosiglitazone], the “delay of wound closure” value (excisional wounds; IL6−/− mice compared to wildtype, inflammatory wound protocol) was 8 days, the “increase in TNF-α mRNA expression” value (iNOS and TNF-α mRNA) was 13 fold and the “increase in iNOS mRNA expression” value (iNOS and TNF-α mRNA) was 20 fold. For the same compound, the “risk of heart attack” value [1] was “substantially increased risk”.
In the case of rIL-6: recombinant IL-6 (R&D Systems), the “day by which wounds healed” value (excisional wounds) is reported as 11 days and the “STAT3 and NF-kB levels” value (NF-κB p65 and STAT3) is reported as “restores STAT3 and NF-kB levels similar to wildtype conditions”.
